Test results: the NIST ThermoML archive (doi:10.1016/j.jct.2014.02.016)

Experiments:
[1] = heat capacity at constant pressure per volume; xn = mol fraction of the nth substance listed; conditions: 100 kPa, Liquid, DSC Calorimetry, x1 = 0.244
[2] = refractive index (other wavelength) (dimensionless); xn = mol fraction of the nth substance listed; conditions: 100 kPa, Liquid, Wavelength=632.8 nm, Angle minimization by sell rotation

CCCCCCCCCCCCC [tridecane] + COC(=O)OC
[1]
Conditions	heat capacity [J/K/m3]
303.5 K	2056000
303.6 K	2019000
303.7 K	1992000
303.8 K	1969000
303.9 K	1958000
304 K	1946000
304.2 K	1942000
304.6 K	1920000
305 K	1910000
306 K	1891000
307 K	1874000
308 K	1870000
309 K	1860000
310 K	1850000
311 K	1843000
312.1 K	1839000
313 K	1837000
315 K	1830000
316 K	1827000
317 K	1825000
318 K	1824000
319.01 K	1821000
320 K	1819000
321 K	1817000
322 K	1815000
323 K	1816000
324 K	1813000
325 K	1812000
326 K	1810000
327 K	1809000
328 K	1809000
329 K	1808000
330 K	1806000
331 K	1805000
332 K	1805000
333 K	1804000
334 K	1802000
335 K	1801000
336 K	1802000
337 K	1801000
338 K	1798000
339 K	1797000
340 K	1799000
341.01 K	1798000
342 K	1799000

[2]
Conditions	refractive index
293.35 K, x1 = 0.073	1.3756
293.35 K, x1 = 0.57	1.4085
294.57 K, x1 = 0.078	1.3756
294.57 K, x1 = 0.553	1.4072
295.8 K, x1 = 0.084	1.3756
295.8 K, x1 = 0.532	1.4057
296.97 K, x1 = 0.091	1.3757
296.97 K, x1 = 0.511	1.4042
298.06 K, x1 = 0.099	1.376
298.06 K, x1 = 0.492	1.4028
299.12 K, x1 = 0.108	1.3764
299.12 K, x1 = 0.467	1.4011
299.84 K, x1 = 0.115	1.3767
299.84 K, x1 = 0.452	1.4
300.52 K, x1 = 0.124	1.3772
300.52 K, x1 = 0.432	1.3987
301.09 K, x1 = 0.132	1.3777
301.09 K, x1 = 0.415	1.3975
301.5 K, x1 = 0.141	1.3783
301.5 K, x1 = 0.398	1.3964
301.8 K, x1 = 0.147	1.3787
301.8 K, x1 = 0.386	1.3956
302.21 K, x1 = 0.158	1.3795
302.21 K, x1 = 0.365	1.3942
302.36 K, x1 = 0.165	1.38
302.36 K, x1 = 0.356	1.3936
302.48 K, x1 = 0.17	1.3804
302.48 K, x1 = 0.348	1.3931
302.56 K, x1 = 0.176	1.3808
302.56 K, x1 = 0.341	1.3926
302.63 K, x1 = 0.18	1.3811
302.63 K, x1 = 0.335	1.3922
302.7 K, x1 = 0.184	1.3814
302.7 K, x1 = 0.329	1.3918
302.79 K, x1 = 0.191	1.382
302.79 K, x1 = 0.317	1.391
302.83 K, x1 = 0.195	1.3823
302.83 K, x1 = 0.311	1.3906
302.86 K, x1 = 0.202	1.3828
302.86 K, x1 = 0.303	1.3901
302.89 K, x1 = 0.206	1.3831
302.89 K, x1 = 0.297	1.3897
302.91 K, x1 = 0.211	1.3835
302.91 K, x1 = 0.291	1.3893
302.92 K, x1 = 0.214	1.3837
302.92 K, x1 = 0.289	1.3891
302.93 K, x1 = 0.218	1.384
302.93 K, x1 = 0.284	1.3888
302.94 K, x1 = 0.223	1.3844
302.94 K, x1 = 0.226	1.3846
302.94 K, x1 = 0.275	1.3882
302.94 K, x1 = 0.278	1.3884
304.39 K, x1 = 0.097	1.3728
304.39 K, x1 = 0.196	1.3818
304.39 K, x1 = 0.297	1.389
304.39 K, x1 = 0.401	1.3953
304.39 K, x1 = 0.497	1.4002
304.39 K, x1 = 0.583	1.404
304.39 K, x1 = 0.71	1.4094
304.39 K, x1 = 0.795	1.4126
304.39 K, x1 = 0.899	1.4163
